# Results reported in patent US9655840B2, “Wound care products” (RIGSHOSPITALET, COPENHAGEN UNIVERSITY HOSPITAL, priority 2009, dated 2017).
# Counter-ions that a name gives are not always drawn. Like-named read-outs stand apart in the source and are kept apart here.
# Experiments:
# [1] = tested on: P. aeruginosa PAO1 biofilm; experiment: continuous flow chamber biofilm, 3-day-old, harvested and plated on LB plates for viability; type: cell-based
# Description: (§1) The wild-type P. aeruginosa PAO1 used for the planktonic and biofilm experiments was obtained from the Pseudomonas Genetic Stock Center (www.pseudomonas.med.ecu.edu, strain PAO0001). The wild-type S. aureus 8325-4, used for planktonic and biofilm experiments was described by Novick, R. P. 1967. For plating, Luria broth (LB) medium mix with 2.0% agar was used. For all experiments including bacterial biofilms, AB minimal medium supplemented with glucose was used except if different is mentioned. […] The continuous flow system is based on once through flow chambers perfused with sterile AB minimal medium containing 0.3 mM glucose as described by Christensen et al. (1999). Continuous flow biofilm tolerance to acetic acid was assessed by growing P. aeruginosa or S. aureus biofilms for three days, then subsequently at day three to four supplementing the AB minimal medium with different concentrations of acetic acid or HCl (HCL served as a as control to acetic acid treatments). […] Due to the buffer capacity of the AB minimal medium used, the pH of the solution became 4.33. […] After the treatment the biofilm biomasses were harvested mechanically from the flow chambers and plated on LB plates for determination of viability. […] The kinetics of antimicrobial activity against mature biofilms was tested by treating a 3-day-old continuous flow chamber biofilms of either P. aeruginosa with 0.5% or S. aureus with 1.0% acetic acid for 24 hours. Due to the buffer capacity of the AB minimal medium used the pH of the solution became 4.33. […] After the treatment the biofilms were harvested mechanically, by scraping with a sterile scalpel, from the flow chambers and plated on LB plates for determination of viable counts.
# [2] = tested on: clinical mucoid P. aeruginosa isolate biofilm
# [3] = tested on: clinical non-mucoid P. aeruginosa isolate biofilm
# [4] = tested on: S. aureus 8325-4 biofilm
# Description: as §1
# [5] = tested on: P. aeruginosa biofilm; experiment: static 24 hour old biofilm in microtiter dishes, CFU after treatment; type: cell-based; conditions: for antimicrobial effect on static biofilm (CFU): 0.5% acetic acid; for synergistic antimicrobial effect in combination with acetic acid: combined with 0.5% acetic acid, static biofilm
# Description: AB minimal medium without acetic acid adjusted to different pH values was used as control.
# AB minimal medium supplemented with increasing concentrations of tobramycin served as control. The biofilm were harvested and plated on LB plates to determine the CFU after treatment (For visual appearance “no growth” is arbitrarily given a CFU value of 2).
# AB minimal medium without acetic acid, but supplemented with increasing concentrations of tobramycin served as control.
# The wild-type P. aeruginosa PAO1 used for the planktonic and biofilm experiments was obtained from the Pseudomonas Genetic Stock Center (www.pseudomonas.med.ecu.edu, strain PAO0001). The wild-type S. aureus 8325-4, used for planktonic and biofilm experiments was described by Novick, R. P. 1967.
# For plating, Luria broth (LB) medium mix with 2.0% agar was used. For all experiments including bacterial biofilms, AB minimal medium supplemented with glucose was used except if different is mentioned.
# Planktonic cultures were grown in shake flasks at 37° C.
# Static biofilm tolerance to acetic acid was assessed by exchanging the AB minimal medium of 24 h old biofilms with AB minimal medium supplemented with different concentrations of acetic acid or HCl as control. To raise the pH of either acetic acid or HCl, NaOH was added in different concentrations.
# To elucidate a synergistic antimicrobial effect of acetic acid and antibiotics, static biofilms of P. aeruginosa were grown for 24 hours prior to subsequent treatment with increasing concentrations of tobramycin and 0.5% acetic acid in the pH interval 3-6.85. The pH was adjusted by supplementing the AB minimal medium with either HCl or NaOH.
# [6] = 0.5% acetic acid, 24 hours, AB minimal medium, pH 4.33
# [7] = 1.0% acetic acid, 24 hours, AB minimal medium, pH 4.33
compound,measurement,setting,value
"Cl [HCl, reference compound]",eradication of mature biofilm (viability by plating),"[1]; AB minimal medium adjusted to pH 4.33 using HCl, 24 hours (control)",had no effect
CC(=O)O [acetic acid],eradication of biofilm,[2],eradicates the biofilms
same,eradication of biofilm,[3],eradicates the biofilms
same,eradication of mature biofilm (viability by plating),[1]; 0.5% acetic acid in sterile miliQ water,Complete eradication
same,eradication of mature biofilm (viability by plating),[1]; [6],completely eradicated
same,time to complete killing of all bacteria,"[1]; 0.5% acetic acid, AB minimal medium, pH 4.33",3 h
same,eradication of mature biofilm (viability by plating),[1]; [7],completely eradicated
same,eradication of mature biofilm (viability by plating),[4]; [6],reduced the number of viable cells
same,eradication of mature biofilm (viability by plating),[4]; 1.0% acetic acid in sterile miliQ water,Complete eradication
same,eradication of mature biofilm (viability by plating),[4]; [7],complete eradication
same,time to complete killing of all bacteria,"[4]; 1.0% acetic acid, AB minimal medium, pH 4.33",3 h
same,antibacterial effect on static biofilm (CFU),"[5]; 0.5% acetic acid alone, pH 6.85",no antibacterial effect
same,antimicrobial effect on static biofilm (CFU),[5]; pH 5,reduced effect
same,antimicrobial effect on static biofilm (CFU),[5]; pH 5.5 and above,no effect
same,antimicrobial effect on static biofilm (CFU),[5]; pH interval 3-4.76,eradicated biofilms
"O=C(O)c1cn(C2CC2)c2cc(N3CCNCC3)c(F)cc2c1=O [ciprofloxaxine, reference compound]",synergistic antimicrobial effect in combination with acetic acid,[5],analogous synergistic effects
"NC[C@H]1O[C@H](O[C@H]2[C@H](O)[C@@H](O[C@H]3O[C@H](CO)[C@@H](O)[C@H](N)[C@H]3O)[C@H](N)C[C@@H]2N)[C@H](N)C[C@@H]1O [tobramycin, reference compound]",reduction of bacterial viability,"[5]; tobramycin alone, concentrations above 12.5 μg/ml",5 fold
colistin [reference compound],synergistic antimicrobial effect in combination with acetic acid,[5],analogous synergistic effects
